Measured values: patent US8241681B2, “Synergistic mixtures of bisabolol and ginger extract” (Symrise AG, priority 2005, dated 2012)

Test system: erythema raised by 24-hour occlusive treatment with SDS (sodium dodecyl sulfate), inside under-arm skin
Assay: SDS inflammation test (SDS irritation study), reduction in reddening of the skin
Assay type: in vivo, human
Conditions: after 3 days
Procedure: The SDS inflammation test was used as the test model. The study was conducted on the inside under-arm of 20 subjects (9 female, 11 male, age: 24-62 years). The reddening of the skin was recorded with a Minolta-Chromameter CR 300 via the a* value of the La′b′ colour system, which describes the position on the red-green axis. The measurements were taken before and 4-6 hours after raising the erythema by 24-hour occlusive treatment with SDS (sodium dodecyl sulfate). The skin was then treated with the test formulation in question 2 times daily for 3 days. 4-6 h after the last application on day 3, the reddening of the skin was determined and the reduction in reddening was calculated from this.
For the study, a defined amount of the active compound combination C according to the invention was incorporated into an O/W emulsion. For comparison purposes, the comparison active compounds A and B were incorporated into separate O/W emulsions.
Extrapon Ginger (Symrise) comprising 1% of ginger CO2 extract, characterized by 25-33% in total of piquant substances with gingerols, shogaols (<3%) and zingerone (<0.5%) and 38-46% of steam-volatile constituents was employed as comparison active compound A.
Calculation of the synergy index (SI) value according to Kull for the reduction in reddening in the SDS inflammation test for a mixture of bisabolol and ginger extract after a treatment time of 3 days: […]

CC(C)=CCC[C@](C)(O)[C@@H]1CC=C(C)CC1 [Formulation with active compound B, -(-Alpha-)-Bisabolol, natural]
Reduction in reddening relative to the start conditions (a* value) (O/W emulsion applied 2 times daily, 20 subjects, Minolta-Chromameter CR 300, Example 11): 2.42 | Placebo-corrected reduction in reddening (a* value) (reduction in reddening active compound minus reduction in reddening placebo, Example 11): 1.02
